Results published in US20220160812A1, “A PHARMACEUTICALLY ACTIVE SUBSTANCE” (Cytopharma GmbH, priority 2019, published 2022).

Tested on: BxPC-3 human pancreatic cancer cells
Assay: cell vitality FACS analysis (region R-1, FSC/SSC), BxPC-3 cells
Type: cell-based
Settings: BxPC-3, Protocol A, about 24 hours, FIG. 8
Description: To transfer adherent cells (A375 and BxPC-3 cells) after culture, cells are washed twice with PBS. To detach the cells, the enzyme biotase is used according to the manufacturer's instructions. For this purpose, after washing with PBS, the cells are mixed with biotase (5 ml of biotase solution per 75 cm^2 surface of the cell culture bottles) and incubated for 5 min at 37 degrees Celsius, and the biotase is separated by centrifugation. Cells cultivated in suspension (MEC-1 and lymphocytes) were transferred by dilution. The cells are suspended in culture medium and counted, each time 1.5×10^5 cells/cm^2 are seeded in 48-well plates and cultured for between 1.5 and 24 hours at 37 degrees Celsius, 5% CO2. Peptides are pre-diluted from stock solution with culture medium and 200 μl of peptide solution added so that final concentrations of 30 to 500 μM peptide are present in at most 1% (v/v) DMSO. As control solutions, culture medium without peptide (DMSO-containing) in culture medium or etoposide solution is added. After incubating the cells for several hours, the cell supernatant is transferred to a FACS tube for each batch and, after washing the cells with PBS, the wash solution is added. Then the cells are incubated with 200 μl of biotase solution for 10 min, 37° C., the cells with the biotase are also transferred to the FACS tube and the cells are collected by centrifugation for 5 min. The cell pellet is suspended in 500 μl of serum-free culture medium, then 1.5 ml of cold 80% ethanol (ethanol/PBS-80/20, v/v, stored at −20° C.) is added, the FACS tubes sealed and stored at −20 degrees Celsius for 15 to 18 h. Thereafter, the cells are centrifuged for 5 minutes at 120 g, suspended after removal of the supernatant in 2 ml PBS and incubated at 37 degrees Celsius for 30 minutes. After re-centrifugation, the cells are suspended in 0.5 ml DAPI solution and incubated for 15 min at 20 degrees Celsius in the dark. Thereafter, the cells are stored dark for a maximum of four hours in an ice bath, followed by the FACS analysis. […]
For suspension cells (MEC-1 and lymphocytes/PBMC) and for adherent cells analyzed according to Protocol A, FACS analysis to determine subG1 cell cycle and vital cell fractions was done on a Becton Dickinson LSR Fortessa flow cytometer. The analysis by FACS including subG1 and vital cell analysis according to protocol B was performed with a Cytomics FC 500 MPL flow cytometer from Beckman Coulter.
Changes of the cell form during cell death by apoptosis are documented in the literature (Lizard et al. 1995; Taga et al. 2000; Vermes et al., 2000). The protocols for cell cultivation, treatment and preparation of the cells before flow cytometry is detailed in separate examples. Cell suspensions of cell lines A375, BxPC-3, MEC-1 or of primary lymphocytes (see separate example of lymphocyte preparation) are analyzed by flow cytometry. The data are further analyzed by using the program “Flowing Software 2”. The data of light scattering are drawn in a two-dimensional FSC/SSC plot. Since the position in the FSC/SSC plot of apoptotic cells changes relative to non-apoptotic cells (Vermes et al., 2000), a region (R-1) is drawn representing mainly non-apoptotic cells and excluding cells with both low FSC and low SSC values and excluding cells with high values of FSC and/or SSC (FIG. 1). The regions are individually selected for each cell type (A375, BxPC-3, MEC-1 and primary lymphocytes). The percentage of untreated non-apoptotic cells in the region R-1 relative to total cells is set to 100%, representing 100% vital cells. The fraction (%) of cells in R-1 relative to the total number of cells in case of cell treatment by certain peptides or by cytotoxic drugs results in cell vitality, below 100%, thereby indicating a loss of cell vitality by the treatment. […]

[1] = all concentrations (50, 100, 200 μM)

## k-s-q-t-v-k-k-w-m-v-v-y-f-r-k [SEQID No 29]
100 μM
  decrease of cell vitality, efficiency in words: very high efficiency
200 μM
  decrease of cell vitality, efficiency in words: astonishing high efficiency
[1]
  decrease of cell vitality, comparison in words: significantly greater decrease than the control peptide (C1)

## k-s-q-t-v-q-k-w-m-v-v-y-f-r-k [SEQID No 36]
50 μM
  decrease of cell vitality, comparison in words: clear improvement over peptides SEQID NO 27, SEQID NO 37 and SEQID NO 29
  efficiency (decrease of cell vitality) in view of Peptide SEQ C1: at least fourfold
100 μM
  decrease of cell vitality, efficiency in words: very high efficiency
200 μM
  decrease of cell vitality, efficiency in words: astonishing high efficiency
100 and 200 μM
  efficiency (decrease of cell vitality) in view of Peptide SEQ C1: at least sevenfold
[1]
  decrease of cell vitality, comparison in words: significantly greater decrease than the control peptide (C1)

## s-q-t-v-q-k-w-m-v-v-y-f-r-k [SEQID No 37]
200 μM
  decrease of cell vitality, efficiency in words: astonishing high efficiency
[1]
  decrease of cell vitality, comparison in words: significantly greater decrease than the control peptide (C1)
